“And” between values parts separate entries of the source, which are not always exact repeats. Equal entries are not always repeated. Where two headings read alike, the source gives them in different places.
Assays:
[1] = molecular target: T1, SphK1 WT (Homo sapiens, UniProt Q9NYA1); assay: filter binding assay of [3H] acetyl-CoA to SphK1 (Supplementary Fig 1f,g); conditions: for Km: read-out: KM of acetyl-CoA binding to SphK1
T1 construct: His (N); made in house
Source text: Single point mutations in SphK1 (R56A, R57A, R24A, R185A, D178A, and F192A) and COX2 (S565A, N181A, T564A, and S567A) were generated using the In-Fusion Cloning Kits (Clontech) and ORF cDNA expression plasmids of human SphK1 and COX2 gene (Sino Biological Inc, HG15679-NH and HG12036-NH), according to the manufacturer’s instructions. The forward and reverse primers described in Supplementary Table 4. The SphK1 WT, SphK1 mutants, COX2 WT, and COX2 mutant plasmids were transformed in the One shot TOP 10 competent cell (Invitrogen). The bacteria were grown in Luria-Bertani (LB, Invitrogen) plates supplemented with 50 μg ml^−1 kanamycin (Sigma-Aldrich) at 37 °C. The bacterial cell pellets were resuspended in lysis buffer containing 20 mM sodium phosphate (GE Healthcare), 500 mM NaCl (GE Healthcare), 20 mM imidazole (pH 7.4) (GE Healthcare), 0.2 mg ml^−1 lysozyme (Sigma-Aldrich), 20 μg ml^−1 DNase I (Roche), 1 mM MgCl2 (Sigma-Aldrich), and 1 mM PMSF (Sigma-Aldrich) before being lysed by sonication and clarified by centrifugation at 15,493×g for 10 min. Proteins were purified from the soluble fraction using His-Spin Trap columns (GE Healthcare) and the binding and acetylation assays were performed.
Briefly, SphK1 WT and mutant enzymes (1 mU) were resuspended in 100 μl reaction buffer (20 mM HEPES; pH 7.4, 50 mM NaCl, 10 mM MgCl2, 1 mM EGTA, 0.02% Triton-X100, and 100 μM sphingosine, all from Sigma-Aldrich). […] Briefly, COX2 WT and mutant enzymes (1 mU) were resuspended in 100 μl reaction buffer (20 mM HEPES; pH 7.4, 50 mM NaCl, 10 mM MgCl2, 1 mM EGTA, and 0.02% Triton-X100, all from Sigma-Aldrich). Reactions were initiated by adding [^14C] N-AS (1–200 μM (0.1–20 μCi), ARC UK Ltd, ARC-1024) and incubated at 37 °C for 1 h. The reactions were terminated by adding 100 μl of ice-cold reaction buffer containing 5 mM cold N-AS and immediately filtered through P30 filtermat (Perkin-Elmer), followed by five washes.
The binding velocity was plotted and the Kcat and KM values were calculated from the Michaelis-Menten analysis using the Sigma-plot program (ver 10.0, Systat software Inc.).

[2] = test system: immortalized human microglia; assay: live-cell phagocytosis assay (bead uptake, Supplementary Fig 6e,f); type: cell-based
Method: Live-cell phagocytosis assays were performed according to previously described procedures with minor modifications. Briefly, in a glass bottom cell culture dish (SPL, 101350), adult SV40 immortalized human microglia cells (Applied Biologics Materials, T0251) were seeded for phagocytosis assay. […] After incubation, the microglia were treated with 0 or 2.5 μM N-AS (Sigma-Aldrich, 01912) at 37 °C for 2 h. FITC beads (Invitrogen) preopsonized in FBS (Gibco) were added at a concentration at 0.01% and then immediately observed using a laser scanning confocal microscope equipped with a live cell chamber system (FV3000, Olympus) for 2 h. Confocal images were collected every 5 min for 2 h and analyzed using the ImageJ software (National Institutes of Health).

[3] = tissue concentrations at 24 h (brain, liver, kidney, heart; Supplementary Fig 3g); type: in vivo, C57BL/6 mice; set-up: Brain concentration (sFig 3g): unit not given here; conditions: for Heart concentration (sFig 3g) / Kidney concentration (sFig 3g) / Liver concentration (sFig 3g) / Brain concentration (sFig 3g): 24 h, individual animals
Method: C57BL/6 mice were administered N-AS (Sigma-Aldrich, 01912) at doses of 1 mg kg^−1 (i.v.) or 10 mg kg^−1 (p.o.). Venous blood samples were collected at 5, 15, and 30 min, and 1, 2, 4, 8, and 24 h postdose. A 30 μl of plasma was separated from whole blood by centrifugation and stored at −80 °C until analysis. Also, brain samples were collected at 1, 2, 4, and 24 h postdose and heart, liver, and kidney samples were collected at 24 h postdose, thoroughly rinsed with physiological saline and weighed. Twenty percentage of tissue homogenates were prepared by homogenizing the tissue samples with four volumes of saline. A 30 μl aliquot of plasma or a 50 μl aliquot of tissue homogenates were deproteinized by addition of 200 μl cold methanol (containing naringenin as internal standard at 20 ng ml^−1) and centrifuged at 15,974×g for 10 min. A 10 μl aliquot of the supernatant was injected into Agilent 6470 LC-MS/MS system. Separation was performed on a Synergy Polar RP column (4 μm particle size, 2.0 mm ×150 mm, Phenomenex) using a mobile phase that consisted of methanol and water (85:15, v/v) with 0.1% formic acid at a flow rate of 0.2 ml min^−1. Quantification was carried out using multiple reaction monitoring (MRM) at m/z 340.3→263.3 for N-AS and m/z 271.1→151.3 for naringenin (internal standard) in negative ionization mode and collision energy of 20 eV. p, and relative oral BA values were calculated as follows: BA% = AUCp.o. normalized by p.o. dose/AUCi.v. normalized by i.v. dose × 100.

[4] = ATP 1000 µM, 100 µM sphingosine
[5] = SphK1 (WT), Supplementary Fig 1g

T1 sequence (Q9NYA1 whole entry): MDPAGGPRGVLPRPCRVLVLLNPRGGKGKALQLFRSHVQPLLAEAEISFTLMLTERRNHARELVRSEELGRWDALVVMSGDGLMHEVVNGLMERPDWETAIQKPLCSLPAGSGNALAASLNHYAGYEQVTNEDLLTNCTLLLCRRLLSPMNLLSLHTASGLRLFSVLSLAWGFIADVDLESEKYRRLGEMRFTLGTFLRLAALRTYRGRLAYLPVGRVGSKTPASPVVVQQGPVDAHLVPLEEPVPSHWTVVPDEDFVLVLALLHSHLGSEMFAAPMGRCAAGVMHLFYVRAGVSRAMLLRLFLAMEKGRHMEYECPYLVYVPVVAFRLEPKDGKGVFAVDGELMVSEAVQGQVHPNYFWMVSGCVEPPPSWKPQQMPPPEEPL

CC(=O)SCCNC(=O)CCNC(=O)[C@H](O)C(C)(C)COP(=O)(O)OP(=O)(O)OC[C@H]1O[C@@H](n2cnc3c(N)ncnc32)[C@H](O)[C@@H]1OP(=O)(O)O [Acetyl-CoA, acetyl-CoA]
Kcat of acetyl-CoA binding to SphK1 ([1]; ATP 0 µM, 100 µM sphingosine): 0.000282 s⁻¹
Kcat of acetyl-CoA binding to SphK1 ([1]; ATP 10 µM, 100 µM sphingosine): 0.000268 s⁻¹
Kcat of acetyl-CoA binding to SphK1 ([1]; ATP 100 µM, 100 µM sphingosine): 0.000183 s⁻¹
Kcat of acetyl-CoA binding to SphK1 [1, 4]: 0.000138 s⁻¹
Kcat of acetyl-CoA binding to SphK1 [1, 5]: 0.000288 s⁻¹
Km ([1]; ATP 0 µM, 100 µM sphingosine): 11 µM
Km ([1]; ATP 10 µM, 100 µM sphingosine): 24.5 µM
Km ([1]; ATP 10 µM, 100 µM sphingosine, listed as acetyl-CoA): 24.5 µM
Km ([1]; ATP 100 µM, 100 µM sphingosine): 35.2 µM
Km ([1]; ATP 100 µM, 100 µM sphingosine, listed as acetyl-CoA): 35.2 µM
Km [1, 4]: 39 µM
Km ([1]; ATP 1000 µM, 100 µM sphingosine, listed as acetyl-CoA): 39 µM
Km [1, 5]: 10.5 µM

CCCCCCCCCCCCC/C=C/[C@@H](O)[C@H](CO)NC(C)=O [N-AS, N-((2S,3R,E)-1,3-Dihydroxyoctadec-4-en-2-yl)acetamide]
phagocytosis capacity, in words ([2]; Aβ-treated human microglia + N-AS): improved SPM production and phagocytosis capacity
Final number of beads per cell (at 120 min) ([2]; human microglia, Ab 0mM, sFig 6f): 20 and 14 and 16 and 11 and 13 and 15
tissue concentration of N-AS at 24 hours post administration, in words ([3]; brain vs liver, kidney, heart, i.v. 1 mg/kg or p.o. 10 mg/kg): brain showed the highest concentration of N-AS
Heart concentration (sFig 3g) ([3]; i.v 1mg/kg): 0
Kidney concentration (sFig 3g) ([3]; i.v 1mg/kg): 0
Liver concentration (sFig 3g) ([3]; i.v 1mg/kg): 0
Brain concentration (sFig 3g) ([3]; i.v 1mg/kg, 1 mg/kg): 13.15 and 12.57 and 8.38 and 7.48
Heart concentration (sFig 3g) ([3]; p.o. 10mg/kg): 0
Kidney concentration (sFig 3g) ([3]; p.o. 10mg/kg): 0
Liver concentration (sFig 3g) ([3]; p.o. 10mg/kg): 0
Brain concentration (sFig 3g) ([3]; p.o. 10mg/kg, 10 mg/kg): 20.2 and 32.76 and 11.3 and 29.06
